In US7897369B2, “Isoprenoid wax ester synthases, isoprenoid acyl CoA-synthetases, and uses thereof” (Regents of the University of Minnesota, priority 2007, dated 2011):
“Also recorded” adds a separate entry of the source.

Tests used:
[1] = test system: WS1; experiment: Coupled enzyme assay, WS substrate profile (TLC); assay type: biochemical, Marinobacter hydrocarbonoclasticus DSM 8798; design: key to WE formation (spot intensity of wax ester products on TLC), WS1, C10 / WE formation (spot intensity of wax ester products on TLC), WS1, C12 / WE formation (spot intensity of wax ester products on TLC), WS1, C14 / WE formation (spot intensity of wax ester products on TLC), WS1, C16 / WE formation (spot intensity of wax ester products on TLC), WS1, Phytol / WE formation (spot intensity of wax ester products on TLC), WS1, Farnesol: no activity (−); ranging from no activity (−) to most active (+++); ranging from no activity (−) to most active (+++); most active (+++); conditions: for WE formation (spot intensity of wax ester products on TLC), WS1, Farnesol: alcohol farnesol; for WE formation (spot intensity of wax ester products on TLC), WS1, Farnesol / WE formation (spot intensity of wax ester products on TLC), WS1, Phytol / WE formation (spot intensity of wax ester products on TLC), WS1, C10 / WE formation (spot intensity of wax ester products on TLC), WS1, C12 / WE formation (spot intensity of wax ester products on TLC), WS1, C14 / WE formation (spot intensity of wax ester products on TLC), WS1, C16: 12 h at 37° C., each substrate 250 μM; for WE formation (spot intensity of wax ester products on TLC), WS1, Phytol: alcohol phytol; for WE product formation by WS1 (TLC), in words: coupled reaction, palmitic acid with hexadecanol, phytanic acid with phytol, phytanoyl-CoA with the alcohols named in the value; for WE formation (spot intensity of wax ester products on TLC), WS1, C10: fatty alcohol C10; for WE formation (spot intensity of wax ester products on TLC), WS1, C12: fatty alcohol C12; for WE formation (spot intensity of wax ester products on TLC), WS1, C14: fatty alcohol C14; for WE formation (spot intensity of wax ester products on TLC), WS1, C16: fatty alcohol C16
Procedure: (§1) Stock solutions of various substrates were prepared in 50 mM Tris-HCl buffer (pH 8) containing 1% gum arabic, 12.5 μg bovine serum albumin ml^−1, 0.1% taurocholate, and either 100 mM fatty acid, isoprenoid acid, fatty alcohol, or isoprenoid alcohol. Stock solutions were sonicated to disperse the substrates. Substrate profiles of the three WS were tested using coupled enzyme in vitro reactions in which the CoA synthetases Acs1 and Acs2 are added to synthesize the CoA-activated fatty acid phytanic acid substrates from corresponding acid precursors for the WS reactions. Assays were carried out in 500-μl reactions containing in 50 mM Tris-HCl buffer (pH 8.0), 12.5 μl of each acid, and alcohol substrate stock solution (final concentrations of each substrate of 250 μM), 10 mM MgCl2, 10 mM CoASH, 10 mM ATP, 5 mM TCEP, 0.1 U of inorganic pyrophosphatase, 0.25 μg of Acs1 and Acs2 CoA synthetase, and 0.5 μg of WS to be tested. Assays were incubated at 37° C. overnight before thin-layer chromatography (TLC) analysis of the reaction products.
(§2) In vitro WS assay samples were extracted with 500 μl of chloroformmethanol (1:1 [vol/vol]), and extracts were analyzed by TLC with Whatman normal phase silica gel 60 plates and developed using hexane-diethyl ether-acetic acid (90:10:1 [vol/vol/vol]). TLC plates were stained with either iodine vapor or anisaldehyde solution as described earlier (Jork et al., 1990. Thin-layer chromatography reagents and detection methods, vol. 1a. Physical and chemical detection methods: fundamentals, reagents. VHC, Weinheim, Germany). Palmitoyl palmitate and triolein were used as WE and TAG reference compounds, respectively.

[2] = target: T1, WS2 (Marinobacter nauticus, UniProt A3RE51); experiment: Coupled enzyme assay, WS substrate profile (TLC); assay type: biochemical, Marinobacter hydrocarbonoclasticus DSM 8798; design: key to WE formation (spot intensity of wax ester products on TLC), WS2, C16 / WE formation (spot intensity of wax ester products on TLC), WS2, Phytol / WE formation (spot intensity of wax ester products on TLC), WS2, Farnesol / WE formation (spot intensity of wax ester products on TLC), WS2, C10 / WE formation (spot intensity of wax ester products on TLC), WS2, C12 / WE formation (spot intensity of wax ester products on TLC), WS2, C14: no activity (−); ranging from no activity (−) to most active (+++); ranging from no activity (−) to most active (+++); most active (+++); conditions: for WE formation (spot intensity of wax ester products on TLC), WS2, Farnesol: alcohol farnesol; for WE formation (spot intensity of wax ester products on TLC), WS2, Farnesol / WE formation (spot intensity of wax ester products on TLC), WS2, Phytol / WE formation (spot intensity of wax ester products on TLC), WS2, C10 / WE formation (spot intensity of wax ester products on TLC), WS2, C12 / WE formation (spot intensity of wax ester products on TLC), WS2, C14 / WE formation (spot intensity of wax ester products on TLC), WS2, C16: 12 h at 37° C., each substrate 250 μM; for WE formation (spot intensity of wax ester products on TLC), WS2, Phytol: alcohol phytol; for WE product formation by WS2 (TLC), in words: coupled reaction, palmitic acid with hexadecanol, phytanic acid with phytol, phytanoyl-CoA with the alcohols named in the value; for WE formation (spot intensity of wax ester products on TLC), WS2, C10: fatty alcohol C10; for WE formation (spot intensity of wax ester products on TLC), WS2, C12: fatty alcohol C12; for WE formation (spot intensity of wax ester products on TLC), WS2, C14: fatty alcohol C14; for WE formation (spot intensity of wax ester products on TLC), WS2, C16: fatty alcohol C16
T1 sequence (A3RE51 entry or part of it): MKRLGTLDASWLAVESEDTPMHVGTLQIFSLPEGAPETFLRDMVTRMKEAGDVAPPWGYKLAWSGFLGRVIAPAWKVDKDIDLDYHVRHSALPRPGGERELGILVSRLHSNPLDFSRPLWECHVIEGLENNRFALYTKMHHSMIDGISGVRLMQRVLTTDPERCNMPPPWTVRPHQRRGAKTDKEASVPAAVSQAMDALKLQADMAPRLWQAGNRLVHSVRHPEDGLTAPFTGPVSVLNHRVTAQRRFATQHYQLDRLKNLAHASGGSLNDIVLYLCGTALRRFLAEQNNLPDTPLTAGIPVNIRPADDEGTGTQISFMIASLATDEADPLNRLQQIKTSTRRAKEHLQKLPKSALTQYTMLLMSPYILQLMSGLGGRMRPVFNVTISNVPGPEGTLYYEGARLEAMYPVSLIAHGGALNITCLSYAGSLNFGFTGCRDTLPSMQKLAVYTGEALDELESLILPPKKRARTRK
Procedure: as §1, §2

[3] = test system: WS3; experiment: Coupled enzyme assay, WS substrate profile (TLC); assay type: biochemical, Marinobacter hydrocarbonoclasticus DSM 8798; conditions: coupled reaction; palmitic acid with hexadecanol, phytanic acid with phytol
Procedure: as §1
(§3) In vitro WS assay samples were extracted with 500 μl of chloroformmethanol (1:1 [vol/vol]), and extracts were analyzed by TLC with Whatman normal phase silica gel 60 plates and developed using hexane-diethyl ether-acetic acid (90:10:1 [vol/vol/vol]). […]

[4] = test system: Acs2; experiment: CoA synthetase assay (HPLC, LC-MS); assay type: biochemical, Marinobacter hydrocarbonoclasticus DSM 8798; conditions: 10 mM acid, 20 min at 37° C.
Procedure: (§4) In vitro reactions were performed as described previously (Trivedi et al., 2004, Nature, 428:441-445) with some modifications. CoA synthetase assays were carried out in 250-μl reaction volumes containing 50 mM Tris-HCl buffer (pH 7.5), 0.1% Triton X-100, 10 mM MgCl2, 5 mM TCEP, 0.1 U of inorganic pyrophosphatase, and as substrates 10 mM phytanic or fatty acids, 10 mM reduced coenzyme A (CoASH), 10 mM ATP, and 0.5 μg of purified Acs (either 1, 2, 3, or 4) protein. The reactions were incubated for 20 min at 37° C. and stopped with 25 μl of 5% acetic acid, followed by HPLC analysis of the reaction products.
(§5) CoA-synthetase assay samples (25 μl) were resolved on an Agilent 1100 HPLC (Agilent Technologies, Palo Alto, Calif.) equipped with a photodiode array detector set to 259 nm. Samples were separated on a reversed-phase Eclipse XDB-C8 column (Agilent Technologies) at a flow rate of 1 ml min^−1. Solvent A consisted of 20 mM ammonium acetate (pH 5.4) in HPLC-grade water, and solvent B contained acetonitrile and methanol (85:15 [vol/vol]). Acyl-CoA and phytanoyl-CoA products were eluted using the following conditions: solvent A-solvent B at 65:35 from 0 to 5 min, followed by a gradient from solvent A-solvent B at 65:35 to 100% solvent B in 30 min. Liquid chromatography-mass spectrometry (LC-MS) analyses of reaction products were done with an LCQ mass spectrophotometer equipped with an electrospray ionization source (ESI) (Thermo Finnigan). Mass fragmentation spectra were monitored in a mass range of m/z 400 to 1,500 with a negative ESI interface.

[5] = test system: Acs3; experiment: CoA synthetase assay (HPLC, LC-MS); assay type: biochemical, Marinobacter hydrocarbonoclasticus DSM 8798; conditions: 10 mM acid, 20 min at 37° C.
Procedure: as §4, §5

[6] = test system: Acs4; experiment: CoA synthetase assay (HPLC, LC-MS); assay type: biochemical, Marinobacter hydrocarbonoclasticus DSM 8798; conditions: 10 mM acid, 20 min at 37° C.
Procedure: as §4, §5

[7] = test system: WS1; experiment: DGAT assay (TLC); assay type: biochemical, Marinobacter hydrocarbonoclasticus DSM 8798; conditions: oleoyl-CoA as acyl donor, dipalmitoyl-glycerol as acyl acceptor
Excerpt: (§6) TLC plates were stained with either iodine vapor or anisaldehyde solution as described earlier (Jork et al., 1990. Thin-layer chromatography reagents and detection methods, vol. 1a. Physical and chemical detection methods: fundamentals, reagents. VHC, Weinheim, Germany). Palmitoyl palmitate and triolein were used as WE and TAG reference compounds, respectively.

[8] = target: T1, WS2; experiment: DGAT assay (TLC); assay type: biochemical, Marinobacter hydrocarbonoclasticus DSM 8798; conditions: oleoyl-CoA as acyl donor, dipalmitoyl-glycerol as acyl acceptor
Excerpt: as §6

[9] = target: T1, WS2; experiment: WS2 kinetics on ethanol and oleoyl-CoA (DTNB); assay type: biochemical, Marinobacter hydrocarbonoclasticus
Procedure: […] Assay reactions were pre-incubated at 37° C. for 5 minutes before the reactions were started by the addition of enzyme.

[10] = target: T2, Acinetobacter WS/DGAT (Acinetobacter baylyi, UniProt Q8GGG1); experiment: Coupled enzyme assay (TLC); assay type: biochemical, Acinetobacter baylyi ADP1; conditions: phytanic acid and phytol as substrates
T2 construct: His6 (N); made in house
T2 sequence (Q8GGG1 1-458): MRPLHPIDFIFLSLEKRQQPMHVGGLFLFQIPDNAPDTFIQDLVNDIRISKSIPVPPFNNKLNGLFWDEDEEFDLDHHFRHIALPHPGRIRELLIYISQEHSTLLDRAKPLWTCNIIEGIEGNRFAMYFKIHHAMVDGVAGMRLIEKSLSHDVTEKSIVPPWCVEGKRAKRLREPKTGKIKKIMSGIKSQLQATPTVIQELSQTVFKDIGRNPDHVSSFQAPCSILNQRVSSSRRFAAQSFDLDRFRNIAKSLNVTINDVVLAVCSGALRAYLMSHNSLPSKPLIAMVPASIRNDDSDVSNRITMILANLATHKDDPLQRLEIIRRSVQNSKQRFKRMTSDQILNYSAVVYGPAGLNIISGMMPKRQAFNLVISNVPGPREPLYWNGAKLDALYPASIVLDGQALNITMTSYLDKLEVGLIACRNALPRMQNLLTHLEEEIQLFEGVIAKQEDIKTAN
Procedure: as §1, §3

[11] = test system: Acs1; experiment: CoA synthetase assay (HPLC, LC-MS); assay type: biochemical, Marinobacter hydrocarbonoclasticus DSM 8798; conditions: 10 mM acid, 20 min at 37° C.
Procedure: as §4, §5

[12] = test system: FadD; experiment: CoA synthetase assay (HPLC, LC-MS); assay type: biochemical, Pseudomonas putida; conditions: purified recombinant protein

Compound | WE formation (spot intensity of wax ester products on TLC), WS1, Farnesol [1] | WE formation (spot intensity of wax ester products on TLC), WS1, Phytol [1] | WE product formation by WS1 (TLC), in words [1] | WE formation (spot intensity of wax ester products on TLC), WS1, C10 [1] | WE formation (spot intensity of wax ester products on TLC), WS1, C12 [1] | WE formation (spot intensity of wax ester products on TLC), WS1, C14 [1] | WE formation (spot intensity of wax ester products on TLC), WS1, C16 [1] | WE formation (spot intensity of wax ester products on TLC), WS2, Farnesol [2] | WE formation (spot intensity of wax ester products on TLC), WS2, Phytol [2] | WE product formation by WS2 (TLC), in words [2] | WE formation (spot intensity of wax ester products on TLC), WS2, C10 [2] | WE formation (spot intensity of wax ester products on TLC), WS2, C12 [2] | WE formation (spot intensity of wax ester products on TLC), WS2, C14 [2] | WE formation (spot intensity of wax ester products on TLC), WS2, C16 [2] | WE product formation by WS3 (TLC), in words [3] | CoA activation by Acs2 [4] | CoA activation by Acs3 [5] | CoA activation by Acs4 [6] | further results
CCCCCCCCCCCCCCCC(=O)O [C16, palmitic acid] | ++ | + | Products were observed | + | ++ | + | +++ | ++ | + | Products were observed | + | + | ++ | +++ | no products were observed | most activity | most activity | most activity | 
CCCCCCCC/C=C\CCCCCCCC(=O)SCCNC(=O)CCNC(=O)[C@H](O)C(C)(C)COP(=O)(O)OP(=O)(O)OC[C@H]1O[C@@H](n2cnc3c(N)ncnc32)[C@H](O)[C@@H]1OP(=O)(O)O [Oleoyl-CoA] |  |  |  |  |  |  |  |  |  |  |  |  |  |  |  |  |  |  | DGAT activity of WS1 (TAG product on TLC) [7]: TAG products were only detected for WS1; also recorded: Only WS1 shows DGAT activity; DGAT activity of WS2 (TAG product on TLC) [8]: did not show DGAT activity; Kcat of WS2 ([9]; steady state on ethanol and oleoyl-CoA): 59 s⁻¹; Vmax of WS2 ([9]; steady state, varied substrate 10 μM-250 μM, other substrate (oleoyl-CoA or ethanol) 500 μM): 1667 μmol (mg/min)^−1
CC(C)CCCC(C)CCCC(C)CCCC(C)CC(=O)O (stereo not shown) [Phytanic acid] | + | + | Products were observed | − | − | − | − | ++ | ++ | Products were observed | − | − | − | − | no products were observed | converted phytanic acid into phytanoyl-CoA | Only Acs2 converted phytanic acid into phytanoyl-CoA | Only Acs2 converted phytanic acid into phytanoyl-CoA | Isoprenoid WE formation by Acinetobacter WS/DGAT [10]: did not show isoprenoid WE formation; CoA activation by Acs1 [11]: Only Acs2 converted phytanic acid into phytanoyl-CoA; CoA activation by P. putida FadD [12]: does not synthesize phytanoyl-CoA; also recorded: did not activate phytanic acid
